Data reported in patent US12594349B2, “Compositions and methods for the targeting of PCSK9” (Scribe Therapeutics Inc., priority 2022, dated 2026).
Like-named read-outs stand apart in the source and are kept apart here.

B1: DOMAIN_26749: repressor domain derived from the king cobra, Ophiophagus hannah; SEQ ID NO: 135 (protein)
chain: STPVTFEDVVVYFTAAEWVHLTNWQRDFYQAVMMETYELVASVAGDGVPMAEDEEGGVERPVWQYIPRGKRRRKTPQPRAD
modifications: Ophiophagus hannah
B2: DOMAIN_29304: one of the top nine most effective repressor domains (protein, listed as Peromyscus maniculatus)
chain: VTYNDVHVDITQEEWALMDPSQRNLYKDVMVETYMNLTAIGYNWENLEVEEPCQNPLKHGRHERPHTGEKPYEYNQCGKAFAQP
B3: dCasX491: catalytically-dead CasX variant, SEQ ID NO: 4 (protein)
chain: QEIKRINKIRRRLVKDSNTKKAGKTGPMKTLLVRVMTPDLRERLENLRKKPENIPQPISNTSRANLNKLLTDYTEMKKAILHVYWEEFQKDPVGLMSRVAQPASKKIDQNKLKPEMDEKGNLTTAGFACSQCGQPLFVYKLEQVSEKGKAYTNYFGRCNVAEHEKLILLAQLKPEKDSDEAVTYSLGKFGQRALDFYSIHVTKESTHPVKPLAQIAGNRYASGPVGKALSDACMGTIASFLSKYQDIIIEHQKVVKGNQKRLESLRELAGKENLEYPSVTLPPQPHTKEGVDAYNEVIARVRMWVNLNLWQKLKLSRDDAKPLLRLKGFPSFPLVERQANEVDWWDMVCNVKKLINEKKEDGKVFWQNLAGYKRQEALRPYLSSEEDRKKGKKFARYQLGDLLLHLEKKHGEDWGKVYDEAWERIDKKVEGLSKHIKLEEERRSEDAQSKAALTDWLRAKASFVIEGLKEADKDEFCRCELKLQKWYGDLRGKPFAIEAENSILDISGFSKQYNCAFIWQKDGVKKLNLYLIINYFKGGKLRFKKIKPEAFEANRFYTVINKKSGEIVPMEVNFNFDDPNLIILPLAFGKRQGREFIWNDLLSLETGSLKLANGRVIEKTLYNRRTRQDEPALFVALTFERREVLDSSNIKPMNLIGVARGENIPAVIALTDPEGCPLSRFKDSLGNPTHILRIGESYKEKQRTIQAKKEVEQRRAGGYSRKYASKAKNLADDMVRNTARDLLYYAVTQDAMLIFANLSRGFGRQGKRTFMAERQYTRMEDWLTAKLAYEGLSKTYLSKTLAQYTSKTCSNCGFTITSADYDRVLEKLKKTATGWMTTINGKELKVEGQITYYNRYKRQNVVKDLSVELDRLSEESVNNDISSWTKGRSGEALSLLKKRFSHRPVQEKFVCLNCGFETHAAEQAALNIARSWLFLRSQEYKKYQTNKTTGNTDKRAFVETWQSFYRKKLKEVWKPAV
B4: 27.100 (nucleic acid)
guide: ACUUUGAGAGCCAUCACCAGCGACUAUGUCGUAGUGGGUAAAGCUCCCUCUUCGGAGGGAGCAUCAAAGCUCUCUCUUUCUGAGGCmU*mA*mG
modifications: as printed in the source, key not given here

Columns and labels:
[1] = test system: human PCSK9 locus; assay: Secreted PCSK9 by ELISA in Huh7 cells transfected with mRNA and gRNA; type: cell-based; conditions: Huh7 cells; for Secreted PCSK9: 6 days post-transfection, normalized to total cell count; for Percent reduction in PCSK9 secretion / Average percent reduction in PCSK9 secretion: LTRP5-ADD-ZIM3 mRNA; for Percent reduction in PCSK9 secretion: day 6, relative to non-targeting gRNA control; for Average percent reduction in PCSK9 secretion: day 6, averaged from the two doses
Description: To assess PCSK9 secretion, seeded Huh7 cells were transfected with mRNA encoding a catalytically-active CasX 676, dXR1, or LTRP5-ADD-ZIM3 and a gRNA with scaffold 316 and spacer targeting either the B2M or PCSK9 locus. Media supernatant was harvested at 6, 18, 36, and 87 days post-transfection to assess level of PCSK9 secretion by ELISA. Levels of PCSK9 secretion were normalized to total cell count. As an additional control, PCSK9 secretion was also measured in the media supernatant harvested from wells containing untreated, naïve cells.
The following three human hepatocyte cancer cell lines were used in this experiment: HepG2 cells, Hep3B cells, and Huh7 cells. ˜15,000 cells of each cell line were seeded per well; the next day, seeded cells were transfected with mRNA encoding a catalytically-active CasX 676, dXR1, or LTRP5-ADD-ZIM3 and a gRNA with scaffold 316 and spacer targeting either the B2M or PCSK9 locus (see Table 23 for specific spacers and sequences). Media supernatant was harvested at 4 days post-transfection to assess level of PCSK9 secretion by ELISA, and levels of PCSK9 secretion were normalized to total cell count and illustrated in FIGS. 11A-11C. Culturing of treated Huh7 cells continued, and media supernatant was harvested at 14 and 27 days post-transfection for measuring PCSK9 secretion by ELISA. As an additional experimental control, PCSK9 secretion was also measured in the media supernatant harvested from wells containing untreated, naïve cells.
To assess PCSK9 secretion, seeded Huh7 cells were co-transfected with mRNA encoding for LTRP5-ADD-ZIM3 and a gRNA with scaffold 316 and spacer targeting the PCSK9 locus using Lipofectamine™ 3000. Two doses of total RNA input at a 2:1 mass ratio of mRNA to gRNA were used for screening: 50 ng mRNA:25 ng gRNA and 25 ng mRNA:12.5 ng gRNA. Media supernatant was harvested at 6 days post-transfection to assess level of PCSK9 secretion by ELISA (Table 74). Levels of PCSK9 secretion were normalized to total cell count. As an additional control, PCSK9 secretion was also measured in the media supernatant harvested from cells transfected with mRNA encoding for mScarlet.

[2] = test system: PCSK9 locus; assay: RNA-seq, normalized PCSK9 read counts in transfected Huh7 cells; type: cell-based, human; conditions: Huh7, mRNA + gRNA scaffold 316 v1, 6 and 26 days post-transfection
Source text: (§1) Seeded Huh7 cells were transfected with mRNA encoding a catalytically-active CasX 676, dXR1, or LTRP5-ADD-ZIM3 and a gRNA with scaffold 316 and a spacer targeting the PCSK9 locus. Cells were harvested at 6 and 26 days post-transfection and subsequently lysed and stored in DNA/RNA Shield (Zymo Research). As an additional control, untreated, naïve cells were also harvested. The collected samples were subjected to gDNA/RNA extraction using the Quick-DNA/RNA Miniprep Plus kit (Zymo Research). RNA samples were used for total RNA sequencing (RNA-seq), which was performed by a third-party. Raw FASTQ files were received and processed with FASTQC, and adapters were trimmed using Trim Galore. Transcript expression was then quantified against the hg38 genome using Salmon to generate normalized counts for each gene (transcripts per million, or TPM). Differential expression analysis was performed using DESeq2. Genes with fewer than 10 counts in all samples were omitted from analysis, and all pairwise comparisons (e.g., differential gene expression analyses between untreated and treated conditions at the two individual timepoints) were done with significance thresholds of |log 2FC|>2 and adjusted p-value<0.001.

[3] = test system: Huh7 cells; assay: RNA-seq, differentially regulated off-target genes in transfected Huh7 cells; type: cell-based, human; conditions: Huh7, 6 and 26 days post-transfection, |log2FC|>2 and adjusted p-value<0.001
Source text: as §1

[4] = test system: B2M locus; type: cell-based; conditions: for B2M repression compared with LTRP5-ZIM3: HEK293T, LTRP5 constructs without ADD domain, scaffold 316 spacer 7.165, days 6/7 to 26/27; for % HLA-negative cells (mean): HEK293T cells, gRNA with B2M-targeting spacer 7.37
[5] = test system: HBEGF; type: cell-based, human
[6] = test system: mouse PCSK9 locus; assay: Intracellular PCSK9 staining by flow cytometry in Hepa1-6 cells lipofected with mRNA and gRNA; type: cell-based; conditions: Hepa1-6, dXR1 mRNA, day 6
Description: Seeded Hepa1-6 cells treated with the NATE™ inhibitor were lipofected with 300 ng of mRNA encoding dXR1 or LTRP1-ZIM3 (Table 12) and 150 ng of a PCSK9-targeting gRNA (Table 14). Seven different gRNAs spanning the promoter region of the mouse PCSK9 locus were tested, in addition to a non-targeting sequence complementary to the human PCSK9 gene (Table 14). Cells were harvested at 6, 13, and 25 days after transfection to measure intracellular levels of the PCSK9 protein using an intracellular flow cytometry staining protocol. […]
Seeded Hepa1-6 cells treated with the NATE™ inhibitor were lipofected with 300 ng of mRNA encoding LTRP1-ZIM3, LTRP5-ZIM3, catalytically-active CasX 491, or dCas9-ZNF10-DNMT3A/3L, and 150 ng of PCSK9-targeting gRNA (Table 14). Intracellular levels of PCSK9 protein were measured at 7, 14, 21, 36, and 71 days post-transfection using an intracellular staining protocol as described earlier for experiment #1.
Transfection of mRNA and gRNA into Hepa1-6 cells and intracellular PCSK9 staining were performed as described in Example 2. […] Intracellular levels of PCSK9 protein were measured at various timepoints, up to day 53 post-transfection using an intracellular staining protocol as described earlier in Example 2. […]

[7] = LTRP5-ADD-ZIM3 mRNA + gRNA scaffold 316, 25 ng mRNA:12.5 ng gRNA
[8] = LTRP5-ADD-ZIM3 mRNA + gRNA scaffold 316, 50 ng mRNA:25 ng gRNA

| Molecule | Secreted PCSK9 [1, 7] | Secreted PCSK9 [1, 8] | Percent reduction in PCSK9 secretion ([1]; 25 ng mRNA:12.5 ng gRNA) | Percent reduction in PCSK9 secretion ([1]; 50 ng mRNA:25 ng gRNA) | Average percent reduction in PCSK9 secretion [1] | PCSK9 expression by RNA-seq [2] | differentially regulated off-target genes [3] | further results |
| --- | --- | --- | --- | --- | --- | --- | --- | --- |
| TG-06-133 (guide AUGGUAGGCACAAGCUCAGC; listed as RNA, chemistry not given here) | 42.13 ng/mL | 29.45 ng/mL | 40.86% | 64.21% | 52.53% | durably repress PCSK9 expression | lowest number of differentially regulated off-target genes | – |
| TG-06-154 (guide AGGGUGUGGGUGCUUGACGC; listed as RNA, chemistry not given here) | 24.48 ng/mL | 6.87 ng/mL | 65.64% | 91.65% | 78.64% | durably repress PCSK9 expression | higher number of differentially regulated off-target genes | – |
| TG-06-167 (guide CACUGAAUAGCGCAGCCGCA; listed as RNA, chemistry not given here) | 66.61 ng/mL | 39.55 ng/mL | 6.51% | 51.93% | 29.22% | durably repress PCSK9 expression | higher number of differentially regulated off-target genes | – |
| B1 | – | – | – | – | – | – | – | B2M repression compared with LTRP5-ZIM3 [4]: most effective; log 2(fold change) of abundance before and after selection ([5]; HEK293T, dCasX491 fusion, scaffold 174 spacer 34.28, 2 ng/mL diphtheria toxin for 48 hours): highest log 2 (fold change) |
| B2 | – | – | – | – | – | – | – | B2M repression compared with LTRP5-ZIM3 [4]: most effective; Log2 (fold change) ([5]; fold change in abundance of each domain in the library before and after diphtheria toxin selection, dXR repression of the HBEGF gene, criteria p-value <0.01 and log2(fold change) >2): 4.0496 |
| B3 | – | – | – | – | – | – | – | % HLA-negative cells (mean) ([4]; 50 days post-transfection): 0.49%; % HLA-negative cells (mean) ([4]; 73 days post-transfection): 0.83% |
| B4 | – | – | – | – | – | – | – | degree of repression with dXR1 mRNA compared with LTRP1-ZIM3 mRNA [6]: less substantial |
